Data published in PMC8151276, “An Integrated Approach toward NanoBRET Tracers for Analysis of GPCR Ligand Engagement” (Molecules, 2021).

Molecular target: T1, ADORA3 (Homo sapiens, UniProt P0DMS8)
T1 construct: purchased Promega (in-house HiBiT-GPCR construct library, NanoBRET)
T1 sequence (P0DMS8 1-318): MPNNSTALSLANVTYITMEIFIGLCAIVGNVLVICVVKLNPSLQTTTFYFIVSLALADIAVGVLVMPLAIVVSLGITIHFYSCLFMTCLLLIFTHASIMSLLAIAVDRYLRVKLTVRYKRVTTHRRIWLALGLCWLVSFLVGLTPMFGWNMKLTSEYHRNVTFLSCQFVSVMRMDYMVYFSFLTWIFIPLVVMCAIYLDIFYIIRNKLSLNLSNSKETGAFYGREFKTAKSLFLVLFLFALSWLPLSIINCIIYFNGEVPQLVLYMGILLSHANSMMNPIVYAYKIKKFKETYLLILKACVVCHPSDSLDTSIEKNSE
Assay: NanoBRET screen HiBiT-ADORA3 in HEK293
Format: binding
Description: Each tracer candidate was screened across the entire library of HiBiT-GPCR constructs using NanoBRET as the detection modality. As depicted in Figure 4A, the specificity of interactions was evaluated through decrease in BRET due to competitive displacement of a bound tracer by excess parental compound. Each tracer was analyzed for binding to each HiBiT-GPCR fusion in the absence and in the presence of competing parental compound. Briefly, HEK293 cells were transfected with HiBiT-GPCR constructs diluted into promoterless DNA to reduce expression and maximize translocation to the cell surface. Each tracer candidate was then screened at concentrations of 1 μM and 0.1 μM across cells expressing these fusions. Cells were treated for 1.5 h with tracer either alone or in the presence of 20 μM competing parental compound (i.e., control). BRET was measured upon addition of purified LgBiT and subsequent complementation with HiBiT genetically fused to a GPCR. The specificity of interactions was assessed through a decrease in BRET signal due to competitive displacement of the bound tracer. To further gauge the robustness of these interactions, the fold response over the control (i.e., BRETtracer/BRETcontrol) was calculated. We chose a 1.5-fold response, which translates to ≥7-fold signal over noise as the minimal threshold required to score an interaction as positive. […]. Below we highlight the screening results obtained for our exemplary fluorescent tracers based on Clozapine, Amitriptyline and AZD1283.
HiBiT-GPCR DNA constructs were diluted in 10 mM Tris pH 8 to a final concentration of 0.01 μg/μL, arrayed in 96-well plates and stored at −20 °C. For transfection, HEK293 cells were suspended in Opti-MEM (without phenol red) supplemented with 2% fetal bovine serum (Seradigm) and 100 units/mL penicillin–streptomycin (Gibco) at a final concentration of 220,000 cells/mL and dispensed into white 96-well plates at 90 μL/well. Subsequent transfections and screens were carried using an Agilent Bravo Automated Liquid Handling Platform. First, the 96-well HiBiT DNA arrays were diluted 25-fold in Opti-MEM (without serum or phenol red) to a final concentration of 0.0004 μg/μL and 20 μL of the diluted DNAs were transferred into new 96-well plates. Next, promoterless carrier DNA (1 μg/μL) was diluted 25-fold (0.04 μg/μL) and then dispensed into the diluted arrays at 20 μL/well. Following brief mixing, Viafect transfection reagent (Promega) diluted 16-fold into Opti-MEM was dispensed into the plates at 40 μL/well. After mixing by pipetting, plates were incubated for 10 min on the pipetting station deck. The DNA-transfection reagent complexes were then added to plates containing cells. To facilitate the screen, 10 μL of DNA-transfection reagent complexes were added in duplicates to the top 4 and bottom 4 rows, resulting in two identical 48-well arrays per plate. Plates with transfected cells were incubated for 18–20 h at 37 °C/5% CO2. A screen of each tracer across the entire library using two different concentrations requires duplicate plates of transfected cells. Depending on the number of tracers being screened, transfections can be scaled up using the same ratios. The next day, for each tracer, four 20× screening solutions in tracer dilution buffer (Promega) were prepared: two duplicates at final concentration of 20 μM and two duplicates at a final concentration of 2 μM. A competing unmodified compound was added to one of each duplicate at a final concentration of 400 μM. The four resulting solutions were diluted 4-fold in Opti-MEM without serum or phenol red to generate 5× solutions (5 µM and 0.5 µM tracer +/− 100 μM competing compound). To screen the library, a BioTek MultiFlo FX liquid dispenser was used to dispense 22.5 µL of tracer solution to the top 4 rows and 22.5 µL tracer + competing compound solution to the 4 bottom rows. Plates were briefly mixed on an orbital shaker and incubated for 1.5 h at room temperature. […]

| SMILES | NanoBRET Fold Response (ADORA3, tracer 0.1μM) | NanoBRET Fold Response (ADORA3, tracer 1μM) | other results |
| --- | --- | --- | --- |
| O=C(CCc1ccc2n1[B-](F)(F)[N+]1=C(c3ccc[nH]3)C=CC1=C2)NCc1ccc(C(=O)NCCOCCC(=O)N[C@@H]2CC[C@@]3(O)[C@H]4Cc5ccc(O)c6c5[C@@]3(CCN4CC3CC3)[C@H]2O6)cc1 [Naltrexone-3-NB590] | 0.77 | 0.84 |  |
| CN1CCN(C2=Nc3cc(Cl)ccc3N(CC(=O)NCCOCCOCCOCCOCCNC(=O)CCc3ccc4n3[B-](F)(F)[N+]3=C(c5ccc[nH]5)C=CC3=C4)c3ccccc32)CC1 [Clozapine-c-2-NB590] |  |  | NanoBRET Fold Response (ADORA3, 0.1μM tracer): 1.05; NanoBRET Fold Response (ADORA3, 1μM tracer): 0.81 |
| O=C(CCOCCOCCOCCOCCNC(=O)CCc1ccc2n1[B-](F)(F)[N+]1=C(c3ccc[nH]3)C=CC1=C2)NCCCN1CCN(C2=Nc3cc(Cl)ccc3Nc3ccccc32)CC1 [Clozapine-a-2-NB590] |  |  | NanoBRET Fold Response (ADORA3, 0.1μM tracer): 1.04; NanoBRET Fold Response (ADORA3, 1μM tracer): 0.83 |
| CCOC(=O)c1cc(C#N)c(N2CCC(C(=O)NS(=O)(=O)Cc3ccccc3/C=C/C(=O)NCCNC(=O)CCc3ccc4n3[B-](F)(F)[N+]3=C(c5ccc[nH]5)C=CC3=C4)CC2)nc1C [AZD1283-1-NB590] |  |  | NanoBRET Fold Response (ADORA3, 0.1μM): 1.11; NanoBRET Fold Response (ADORA3, 1μM): 1.09 |
| COc1ccc2[nH]c(-c3ccc(CNC(=O)CCOCCOCCOCCOCCNC(=O)CCc4ccc5n4[B-](F)(F)[N+]4=C(c6ccc[nH]6)C=CC4=C5)cc3)c(CCNC(C)=O)c2n1 [AzomelatoninICO9-2-NB590] |  |  | NanoBRET Fold Response (0.1μM tracer): 0.91; NanoBRET Fold Response (1μM tracer): 0.97 |
| CCCn1c(=O)c2[nH]c(-c3ccc(OCC(=O)NCCNC(=O)CCOCCNC(=O)c4ccc(CNC(=O)CCc5ccc6n5[B-](F)(F)[N+]5=C(c7ccc[nH]7)C=CC5=C6)cc4)cc3)nc2n(CCC)c1=O [XAC-3-NB590] | 12.13 | 6.72 |  |
| COc1ccccc1N1CCN(CCCCN2C(=O)c3ccc(CNC(=O)CCOCCNC(=O)c4ccc(CNC(=O)CCc5ccc6n5[B-](F)(F)[N+]5=C(c7ccc[nH]7)C=CC5=C6)cc4)cc3C2=O)CC1 [NAN-190-3-NB590] | 0.97 | 1.19 |  |
| CN(CCC=C1c2ccccc2CCc2ccccc21)C(=O)CCOCCOCCOCCOCCNC(=O)CCc1ccc2n1[B-](F)(F)[N+]1=C(c3ccc[nH]3)C=CC1=C2 [Amitriptyline-e-2-NB590] |  |  | NanoBRET Fold Response (tracer at 1μM): 0.99 |
| O=C(CCc1ccc2n1[B-](F)(F)[N+]1=C(c3ccc[nH]3)C=CC1=C2)NCc1ccc(C(=O)NCCOCCOCCNCC(O)COc2cccc3ccccc23)cc1 (centres unmarked) [Propranolol-3-NB590] |  |  | NanoBRET Fold Response (ADORA3, 0.1μM): 1.04; NanoBRET Fold Response (ADORA3, 1μM): 0.98 |
| COc1ccc2c(n1)c(CCNC(C)=O)cn2CCNC(=O)CCc1ccc2n1[B-](F)(F)[N+]1=C(c3ccc[nH]3)C=CC1=C2 [Azamelatonin-1-NB590] |  |  | NanoBRET Fold Response (0.1μM tracer): 1.01; NanoBRET Fold Response (1μM tracer): 1.02 |
| O=C(CCOCCOCCOCCOCCNC(=O)CCc1ccc2n1[B-](F)(F)[N+]1=C(c3ccc[nH]3)C=CC1=C2)NCCCN1CCN(C2=Nc3ccccc3Oc3ccc(Cl)cc32)CC1 [Loxapine-a-2-NB590] | 1.04 | 0.78 |  |
| COc1ccccc1N1CCN(CCCCN2C(=O)c3ccc(CNC(=O)CCOCCOCCOCCOCCNC(=O)CCc4ccc5n4[B-](F)(F)[N+]4=C(c6ccc[nH]6)C=CC4=C5)cc3C2=O)CC1 [NAN-190-2-NB590] | 0.96 | 0.89 |  |
| CC(C)N(CC[C@H](c1ccccc1)c1cc(CCNC(=O)c2ccc(CNC(=O)CCc3ccc4n3[B-](F)(F)[N+]3=C(c5ccc[nH]5)C=CC3=C4)cc2)ccc1O)C(C)C [Tolterodine-BZ-NB590] | 0.58 | 0.71 |  |
| O=C(CCc1ccc2n1[B-](F)(F)[N+]1=C(c3ccc[nH]3)C=CC1=C2)NCCOCCOCCNC(=O)OCCOCCN1CCN(C2=Nc3ccccc3Sc3ccccc32)CC1 [Quetiapine-a-2-NB590] | 0.98 | 0.82 |  |
| CN1CCN(C2=Nc3cc(Cl)ccc3Nc3ccc(CNC(=O)CCOCCOCCOCCOCCNC(=O)CCc4ccc5n4[B-](F)(F)[N+]4=C(c6ccc[nH]6)C=CC4=C5)cc32)CC1 [Clozapine-b-2-NB590] |  |  | NanoBRET Fold Response (ADORA3, 0.1μM tracer): 1.02; NanoBRET Fold Response (ADORA3, 1μM tracer): 1.08 |
| CC(C)N(CC[C@H](c1ccccc1)c1cc(CCNC(=O)CCOCCOCCOCCOCCNC(=O)CCc2ccc3n2[B-](F)(F)[N+]2=C(c4ccc[nH]4)C=CC2=C3)ccc1O)C(C)C [Tolterodine-2-NB590] | 1.12 | 1.00 |  |
| CN(C)CCC=C1c2ccccc2CCc2ccc(C(=O)NCCNC(=O)CCOCCOCCOCCOCCNC(=O)CCc3ccc4n3[B-](F)(F)[N+]3=C(c5ccc[nH]5)C=CC3=C4)cc21 [Amitriptyline-a-2-NB590] |  |  | NanoBRET Fold Response (tracer at 0.1μM): 1.00; NanoBRET Fold Response (tracer at 1μM): 1.07 |
| Cc1cc2c(s1)Nc1ccccc1N=C2N1CCN(CCCNC(=O)CCOCCOCCOCCOCCNC(=O)CCc2ccc3n2[B-](F)(F)[N+]2=C(c4ccc[nH]4)C=CC2=C3)CC1 [Olanzapine-a-2-NB590] | 0.94 | 1.13 |  |
| N#CN=C(NCCCOc1cccc(CN2CCCCC2)c1)NCCNC(=O)CCOCCOCCOCCOCCNC(=O)CCc1ccc2n1[B-](F)(F)[N+]1=C(c3ccc[nH]3)C=CC1=C2 [Aminopotentidine-2-NB590] | 1.16 | 1.03 |  |
| Cc1nc2n(c(=O)c1CCN1CCC(c3noc4cc(F)ccc34)CC1)CCCC2OC(=O)NCCOCCOCCOCCOCCNC(=O)CCc1ccc2n1[B-](F)(F)[N+]1=C(c3ccc[nH]3)C=CC1=C2 (centres unmarked) [Risperidone-2-NB590] | 1.03 | 0.87 |  |
| CN(C)CCC=C1c2ccccc2CCc2ccc(C(=O)NCCNC(=O)CCOCCOCCOCCOCCNC(=O)CCc3ccc4n3[B-](F)(F)[N+]3=C(c5ccc[nH]5)C=CC3=C4)cc21 [Amitriptyline-b-2-NB590] |  |  | NanoBRET Fold Response (tracer at 0.1μM, listed as amitriptyline-b-2-NB590): 0.87; NanoBRET Fold Response (tracer at 1μM, listed as amitriptyline-b-2-NB590): 0.66 |
